Here are results for four compounds from US20260028571A1, “BIOREACTORS FOR PERFUSING CELLS” (Ramot at Tel-Aviv University Ltd., priority 2023, published 2026).

The subject of assay [1] is patient-derived mucosal melanoma cells. In words: Drug testing on patient-derived 3D tumor organoids in the perfusion system. The conditions noted are these: 96-well 3D tumor organoids with patient-derived PBMCs, FIG. 7. It counts as cell-based, human. As to the method:
(§1) Blood and tissue samples from a mucosal melanoma, a patient having the following characteristics: • person, malignant mucosal melanoma. • Tissue site: resected from the groin lymph node
96-well 3D tumor organoids were generated from the tumor sample (i.e. tumor cells and microenvironment cells, blood vessels and PBMCs were created from the samples. The tumor organoids were cultured in a plate similar to that shown in FIG. 1A. Each treatment was tested on multiple 3D organoids, each treatment corresponding to a single sequence of connected cell wells.
Multiple treatments and combinations were tested on the patient-derived mucosal melanoma cells and the patient-derived PBMCs, as summarized in FIG. 7.

The subject of assay [2] is malignant mucosal melanoma. In words: Clinical treatment of the mucosal melanoma patient. It counts as in vivo, human.
Source text: as §1
This was followed by additional cycles of nivolumab post-surgery as adjuvant therapy resulting in further PD.
The perfusion system could have anticipated the unfavorable prognosis associated with Nivolumab (which was what was originally prescribed by the doctor) within 1-2 weeks, potentially sparing the patient six months of ineffective treatment, side effects, and the high costs as well as the time in which further mutations occurred.

For Atezolizumab, in assay [1], the response came out at 0%. On the same count and under the same terms, the same measure for Pembrolizumab: 0%. Regarding `CNC(=O)c1cc(Oc2ccc(NC(=O)Nc3ccc(Cl)c(C(F)(F)F)c3)c(F)c2)ccn1` [Regorafenib], the efficacy in assay [1] was 93%. Besides, the “reduction in tumor size” value in assay [2] (within a two-week timeframe) is reported as 50%. Take Nivolumab: in assay [1], the response came out at 0%. Moreover, the clinical outcome in assay [2] (additional cycles post-surgery as adjuvant therapy) is “further PD”; in assay [2] (neoadjuvant therapy, 4 cycles) it was “progressive disease (PD)”.
